Laboratory results published in US20010048942A1, “Dutasteride to prevent and treat atherosclerosis” (priority 2000, published 2001).

Test system: patients of the practice
Assay: second study: questionnaire on cardiac events in patients of the practice treated with finasteride vs control group
Format: in vivo, human
Settings: 4 events over 242 patient-years; control 3.5%/yr.
Description: Finasteride was being administered at a dosage of a single oral 5 mg tablet a day. This is the same tablet used in treatment of BPH as disclosed in U.S. Pat. No. 5,175,155 and such dosage applies in the present invention. However, use of a 2 mg or 10 mg oral tablet is contemplated.
Two studies were undertaken to determine whether finasteride was, in fact, effective in lessening the incidence of heart disease and other complications of atherosclerosis.
In the second study patients of the practice were given a questionnaire. Various patients had been treated with finasteride for varying lengths of time. Only those on the drug for at least one year were considered. The average time on finasteride was 3 years. The number of cardiac events occurring in the patients taking finasteride was only 4 events over 242 patient-years. (1.6%/yr.) In the control group 26 events occurred in the 3 years prior over 732 patient-years. (3.5%/yr.)
The […] observed in cardiac events is believed to be significant. (90% Cl equal to 1.4% to 3.7%)

CC(C)(C)NC(=O)[C@H]1CC[C@H]2[C@@H]3CC[C@H]4NC(=O)C=C[C@]4(C)[C@H]3CC[C@]12C [finasteride, 4-azaandrost-1-ene-17-carboxamide, N-(1,1-dimethylethyl)-3-oxo-(5a 17B)-]
cardiac events per patient-year: 1.6 %/yr.
